Legend:
Assay in all cases: relative viability (nuclei count vs DMSO), 5 days (fraction); higher = more cells survive
Trametinib + Navitoclax = compound: CC(=O)Nc1cccc(-n2c(=O)n(C3CC3)c(=O)c3c(Nc4ccc(I)cc4F)n(C)c(=O)c(C)c32)c1 [Trametinib] + CC1(C)CCC(c2ccc(Cl)cc2)=C(CN2CCN(c3ccc(C(=O)NS(=O)(=O)c4ccc(N[C@H](CCN5CCOCC5)CSc5ccccc5)c(S(=O)(=O)C(F)(F)F)c4)cc3)CC2)C1 [Navitoclax] (partner 0.5 µM)
Outline: (§1)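 Lung cancer cell lines, seeded in 1536-well plates, were treated the following day by pin tool with a single drug or with five library-drug doses (not always all listed) in √10 steps on top of a fixed anchor-drug dose. Cells were fixed and nuclei stained in one step after 5 days, and nuclei were counted. Relative viability is the nuclei count for treated wells divided by that for vehicle wells, reported as medians of duplicate plates.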

[1] = compound: CN1C=C(C2=CC=CC=C21)/C=C\3/C4=C(C=CC=N4)NC3=O + CC(C)C[C@H](NC(=O)[C@H](Cc1ccccc1)NC(=O)c1cnccn1)B(O)O [Bortezomib] (partner 0.002 µM)
Outline: as §1

[2] = compound: CN1C=C(C2=CC=CC=C21)/C=C\3/C4=C(C=CC=N4)NC3=O + CC1(C)CCC(c2ccc(Cl)cc2)=C(CN2CCN(c3ccc(C(=O)NS(=O)(=O)c4ccc(N[C@H](CCN5CCOCC5)CSc5ccccc5)c(S(=O)(=O)C(F)(F)F)c4)cc3)CC2)C1 [Navitoclax] (partner 0.5 µM)
Outline: as §1

[3] = compound: CN1C=C(C2=CC=CC=C21)/C=C\3/C4=C(C=CC=N4)NC3=O + C[C@]1(O)C[C@@H](c2nc(-c3ccc4ccc(-c5ccccc5)nc4c3)c3c(N)nccn32)C1 [Linsitinib] (partner 1 µM)
Outline: as §1

Row | Cell Line | relative viability (Trametinib + Navitoclax; first compound 0.0025 µM) | relative viability (Trametinib + Navitoclax; first compound 0.007906 µM) | relative viability (Trametinib + Navitoclax; first compound 0.025 µM) | relative viability (Trametinib + Navitoclax; first compound 0.07906 µM) | relative viability (Trametinib + Navitoclax; first compound 0.25 µM) | relative viability ([1]; first compound 0.02 µM) | relative viability ([1]; first compound 0.06325 µM) | relative viability ([1]; first compound 0.2 µM) | relative viability ([1]; first compound 0.6325 µM) | relative viability ([1]; first compound 2 µM) | relative viability ([2]; first compound 0.02 µM) | relative viability ([2]; first compound 0.06325 µM) | relative viability ([2]; first compound 0.2 µM) | relative viability ([2]; first compound 0.6325 µM) | relative viability ([2]; first compound 2 µM) | relative viability ([3]; first compound 0.02 µM) | relative viability ([3]; first compound 0.06325 µM) | relative viability ([3]; first compound 0.2 µM) | relative viability ([3]; first compound 0.6325 µM) | relative viability ([3]; first compound 2 µM)
1 | 201T | 1.17 | 1.1 | 1.13 | 1.08 | 1.09 | 1.02 | 1.18 | 1.07 | 1.16 | 1.09 | 1.22 | 1.21 | 1.24 | 1.27 | 1.23 | 0.993 | 1.05 | 0.967 | 1.09 | 0.786
2 | NCI-H3122 | 0.937 | 0.867 | 0.508 | 0.548 | 0.435 | 0.943 | 0.986 | 1 | 1.06 | 0.992 | 0.907 | 1.01 | 0.989 | 1.11 | 1.06 | 0.895 | 0.972 | 1.01 | 1.06 | 1.04
3 | NCI-H838 | 1.05 | 0.973 |  | 1.01 | 0.718 | 0.79 | 0.769 | 0.835 | 0.785 | 0.818 | 0.941 | 1.04 | 1.05 | 1.04 | 1.1 | 0.662 | 0.866 | 0.944 | 0.904 | 0.986
4 | NCI-H1755 | 0.958 | 0.952 | 0.901 | 0.918 | 0.838 | 0.953 | 0.889 | 0.868 | 0.953 | 0.87 | 0.836 | 1 | 0.98 | 0.909 | 0.885 | 0.95 | 1.01 | 0.967 | 0.968 | 0.991
5 | HCC-15 | 0.505 | 0.336 | 0.243 | 0.247 | 0.189 | 0.972 | 0.939 | 1.09 | 1.09 | 1.18 | 0.763 | 0.689 | 0.736 | 0.559 | 0.665 | 0.907 | 0.841 | 0.933 | 0.853 | 0.976
6 | NCI-H2087 | 0.718 | 0.406 | 0.244 | 0.223 | 0.257 | 0.812 | 0.815 | 0.882 | 0.839 | 0.836 | 1.01 | 0.843 | 1.19 | 1.03 | 1.13 | 0.82 | 0.708 | 1.02 | 0.944 | 1.23
7 | EBC-1 | 0.274 | 0.218 | 0.157 | 0.141 | 0.179 | 0.473 | 0.524 | 0.51 | 0.572 | 0.494 | 0.37 | 0.426 | 0.384 | 0.48 | 0.498 | 1.03 | 0.873 | 0.723 | 0.922 | 0.971
8 | HCC-78 | 0.728 | 0.591 | 0.558 | 0.624 | 0.42 | 0.41 | 0.499 | 0.519 | 0.432 | 0.469 | 0.692 | 0.71 | 0.589 | 0.778 | 0.758 | 0.444 | 0.51 | 0.233 | 0.423 | 0.487
9 | NCI-H1666 | 0.613 | 0.64 | 0.375 | 0.456 | 0.393 | 1 | 0.77 | 0.542 | 0.692 | 0.709 | 1.19 | 0.883 | 0.879 | 0.761 | 0.542 | 0.85 | 0.712 | 0.79 | 0.748 | 0.665
10 | IA-LM | 0.584 | 0.383 | 0.179 | 0.1 | 0.0292 | 1 | 0.873 | 0.554 | 0.768 | 0.696 | 1.05 | 0.833 | 0.731 | 0.749 | 0.541 | 0.85 | 0.668 | 0.477 | 0.762 | 0.771
11 | EKVX | 0.728 | 0.627 | 0.37 | 0.376 | 0.371 | 1.05 | 0.79 | 0.946 | 1.04 | 0.972 | 0.909 | 0.774 | 0.811 | 0.7 | 0.772 | 0.911 | 0.926 | 0.921 | 0.729 | 0.883
12 | COR-L 105 | 0.594 | 0.517 | 0.417 | 0.387 | 0.324 | 0.743 | 0.749 | 0.693 | 0.675 | 0.811 | 0.552 | 0.563 | 0.711 | 0.727 | 0.873 | 0.969 | 0.948 | 0.9 | 0.809 | 0.916
13 | NCI-H322M | 1.15 | 0.97 | 1.01 | 0.827 | 0.687 | 1.22 | 1.28 | 1.22 | 1.31 | 1.25 | 1.31 | 1.3 | 1.12 | 1.12 | 1.29 | 1.01 | 0.993 | 0.874 | 0.819 | 0.862

Reference: the supplement of paper PMC10307832
